Patent US8293211B2, “CB1 receptor antagonists and uses thereof” (MAKScientific, LLC, priority 2007, dated 2012)

Key:
hCB1 = target: T1, hCB1 (Homo sapiens, UniProt P21554); assay: Forskolin-stimulated cAMP assay; format: cell-based
T1 construct: expressed in transfected cells; host or cells: HEK293
Protocol: Intracellular cAMP levels were measured with a competitive protein-binding assay using intact HEK293 cells expressing hCB1 or hCB2 and a cAMP immunoassay kit from Sigma (St. Louis, Mo.). In short, forskolin stimulated cells were incubated with various concentrations of compound, cAMP anti-body and cAMP conjugate for 2 hours at ambient temperature. The reaction was stopped by emptying the wells followed by the addition of p-NPP substrate and incubation for 1 hour. […] The results were expressed as percent inhibition of forskolin-stimulated cAMP accumulation and EC50 curves were generated with the use of GraphPad Prism software.

[1] = test system: Male Sprague-Dawley (SD) rats; assay: Food intake studies (experiments A, B, C), food intake and body weight; format: in vivo, rat
Protocol: All experimental protocols were approved by internal guidelines. Different concentrations of drugs were administered I.P. in a 1 ml kg-1 (milliliters per kilogram) volume, except M6G, which was given s.c. (subcutaneously) in a 0.1 ml kg-1 volume.
Food and water were presented in inverted glass bottles that attached to the outside of the cage. Food was available for 18 h each day starting at 16:00 h (12 h light-dark cycle; lights off 16:00 h).
Intake measurements were taken at 1.5 h, 3 h, 5 h, and 18 h after food became available.
Rats were habituated to testing and handling procedures as before. […] Food intake and body weight were monitored daily.
On the day of the experiment each rat received only a single injection, 30 min later food was made available as described in experiment 1. Food intake was measured 0.5, 1.5, 3, 5, and 18 h after administration. Food intake and body weight were monitored daily for five days after the experiment to assess the sustained effect of a single administration of each compound.

adult male ferrets = assay: Emesis studies: vomiting induced by the emetic M6G; format: in vivo, ferret; settings: for mean number of vomiting episodes±SEM: 60 min observation
Protocol: Ferrets were lightly anaesthetized with halothane for each injection. Data were videotaped and analyzed by an observer blinded to the conditions of each treatment group. During 60 min of observation the number of vomiting (emetic) episodes were counted, and activity or sleeping time was noted. […] Each ferret acted as its own control, conditions were randomized via a counter balance design and separated by at least 14 days.

Rats = assay: Operant lever pressing on FR5 schedules; format: in vivo, rat
Protocol: Following the initial training period, rats (n=8 each group) were injected with drug and then tested once a week on Thursdays. For experiments 1 and 2, Compound 3 or Compound 2, respectively were injected IP at doses of 1.0, 2.0, 4.0, or 8.0 mg/kg or vehicle. Pretreatment time for these two experiments was 30 min. For experiments 3 and 4, rats were given drug or vehicle orally 1 hour before testing. In experiment 3, rats were given vehicle or 8.0, 16.0, or 32.0 mg/kg Compound 3. In experiment 4, rats received vehicle or Compound 2 at doses of 4.0, 8.0, or 16.0 mg/kg. All doses were given in a randomized order using a repeated measures design.

CB1 receptor [2] = target: T2, CB1 receptor (Rattus norvegicus, UniProt P20272); assay: [3H]CP55,940 competitive binding assay, CB1 (rat brain membranes); set-up: membrane preparations from rat brain; from tissue; host or cells: rat brain membranes
T2 sequence (P20272 whole entry): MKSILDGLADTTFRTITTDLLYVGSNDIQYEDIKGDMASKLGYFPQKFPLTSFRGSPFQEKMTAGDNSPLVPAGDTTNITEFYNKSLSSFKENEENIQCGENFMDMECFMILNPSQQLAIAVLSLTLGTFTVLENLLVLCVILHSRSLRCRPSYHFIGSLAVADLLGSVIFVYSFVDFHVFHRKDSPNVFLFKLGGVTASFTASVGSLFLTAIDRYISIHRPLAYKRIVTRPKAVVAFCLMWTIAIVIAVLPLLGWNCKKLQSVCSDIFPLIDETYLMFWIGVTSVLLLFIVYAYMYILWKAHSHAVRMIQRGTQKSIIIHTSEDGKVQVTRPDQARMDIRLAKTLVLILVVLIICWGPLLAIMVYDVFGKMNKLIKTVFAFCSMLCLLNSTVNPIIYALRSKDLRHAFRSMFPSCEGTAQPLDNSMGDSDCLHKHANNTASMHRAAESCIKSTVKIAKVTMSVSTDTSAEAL
Protocol: Compounds were tested for their CB1 and CB2 receptor using membrane preparations from rat brain or HEK293 cells expressing hCB2 receptor, respectively, and [^3H]CP55,940 as previously described 1, 36-38. Stock solutions of the compounds (10 mM in DMSO) were diluted in TME buffer (50 mM Tris-HCL, 3 mM MgCl2, 100 mM NaCl, 0.2 mM EDTA, pH 7.4) with 0.1% BSA and transferred to 96 well plates containing [^3H]CP55,940 (specific activity 128 Ci/mmol; NIDA) at a final concentration of 0.76 nM. Non-specific binding was assessed in the presence of 100 nM CP55,940. The binding reaction was initiated with the addition of the respective membrane suspension (˜50 μg membrane protein) followed by incubation at 30° C. with gentle agitation in a shaking water bath for 60 minutes. […] The filter plates were washed with ice-cold wash buffer (50 mM Tris-base, 5 mM MgCl2 with 0.5% BSA) and bound radioactivity was determined using a Packard TopCount Scintillation Counter. The results were analyzed using nonlinear regression to determine the actual IC50 and the Ki values of the ligand (Prizm by GraphPad Software, Inc.). All data were in duplicate with IC50 and Ki values determined from at least two independent experiments.
The affinity of a compound for CB1 vs. CB2 is determined by the ratio of the inhibitory constants (Ki), as determined by the competitive binding assay.

CB1 receptor [3] = target: T2, CB1 receptor; assay: Thermoregulation assay: hypothermia induced by the CB1 agonist CP55,940; format: in vivo; set-up: antagonized CB1 receptors in vivo; from tissue; host or cells: whole animal, male SD rats
Protocol: Briefly, silicone coated temperature data loggers (SubCue Inc, Calgary, Canada) were surgically implanted into the abdominal cavity of male SD (450-500 g) rats under isoflurane anesthesia (4% induction; 2-2.5% maintenance). Rats were allowed to recover for 3 days before being acclimatized to testing and handling procedures for an additional seven days. Core body temperature readings were sampled every 5 min for 300 min during the course of each experiment.

[4] = experiment B, 5 mg kg-1 daily, day 4
[5] = experiment B, 5 mg kg-1 daily, day 5

T1 sequence (P21554 whole entry): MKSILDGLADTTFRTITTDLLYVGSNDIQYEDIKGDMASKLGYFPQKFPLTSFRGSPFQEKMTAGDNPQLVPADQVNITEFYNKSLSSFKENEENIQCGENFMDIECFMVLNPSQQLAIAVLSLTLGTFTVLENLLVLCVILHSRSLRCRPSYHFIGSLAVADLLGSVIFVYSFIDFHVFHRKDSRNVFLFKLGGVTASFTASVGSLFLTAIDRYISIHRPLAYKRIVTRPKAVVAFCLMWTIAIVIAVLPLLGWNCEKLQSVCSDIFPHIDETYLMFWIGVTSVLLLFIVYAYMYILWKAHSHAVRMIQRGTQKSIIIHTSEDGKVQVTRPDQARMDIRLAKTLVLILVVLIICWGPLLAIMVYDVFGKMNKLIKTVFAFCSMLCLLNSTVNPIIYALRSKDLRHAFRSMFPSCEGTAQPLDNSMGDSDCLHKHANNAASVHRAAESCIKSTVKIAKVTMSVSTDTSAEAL

With Cc1c(C(=O)NN2CCCCC2)nn(-c2ccc(Cl)cc2Cl)c1-c1ccc(C#CCCC#N)cc1 [Compound 3] the “change of forskolin-stimulated cAMP accumulation” value (hCB1; CB1 transfected HEK cells, up to concentrations of 630 nM) was “did not change”, the “effect on forskolin stimulated cAMP production” value (hCB1; HEK293 cells transfected with human CB1 receptors) was “no effect” and the “acute effect on food intake compared with vehicle” value ([1]; experiment A, 5 mg kg-1 I.P. single dose) was “did not significantly reduced food intake”. The “food intake and weight gain, differences to vehicle treated rats” value ([1]; experiment B, 1 mg kg-1 daily) was “non significant”, the “food intake, difference compared with vehicle treated rats” value ([1]; experiment B, 5 mg kg-1 daily, day 3) was -23.2 g and the “food intake, difference compared with vehicle treated rats” value [1, 4] was -20.4 g. For the same compound, the “weight gain, difference to vehicle treated rats” value [1, 4] was -15.6 g, the “food intake, difference compared with vehicle treated rats” value [1, 5] was -19.2 g and the “weight gain, difference to vehicle treated rats” value [1, 5] was -21.8 g. The “weight gain, difference to vehicle treated rats” value ([1]; experiment B, 5 mg kg-1 daily, day 6) was -23.7 g, the “food intake compared with vehicle” value ([1]; experiment B, 1 and 5 mg kg-1 daily, first day of treatment) was “No significant reductions” and the “differences in food intake” value ([1]; experiment B, 1 and 5 mg kg-1 daily, second day of treatment) was “not statistically significant”. The “food intake, difference between the 1 mg kg-1 and 5 mg kg-1 doses” value ([1]; experiment B, daily treatment, day 3) was -17.6 g, the “weight gain, difference 5 mg kg-1 versus 1 mg kg-1” value ([1]; experiment B, daily treatment, day 4) was -12.0 g and the “food intake, difference compared with vehicle treated rats” value ([1]; experiment C, 10 mg kg-1 single dose, 3 h) was -20.0 g. For the same compound, the “food intake, difference compared with vehicle treated rats” value ([1]; experiment C, 10 mg kg-1 single dose, 5 h) was -22.8 g, the “food intake, difference compared with vehicle treated rats” value ([1]; experiment C, 10 mg kg-1 single dose, 18 h) was -42.0 g and the “food intake, difference compared with vehicle treated rats” value ([1]; experiment C, 10 mg kg-1 single dose, […]) was -14.3 g. The “food intake, difference compared with vehicle treated rats” value ([1]; experiment C, 20 mg kg-1 single dose, 3 h) was -21.3 g, the “food intake, difference compared with vehicle treated rats” value ([1]; experiment C, 20 mg kg-1 single dose, 5 h) was -30.1 g and the “food intake, difference compared with vehicle treated rats” value ([1]; experiment C, 20 mg kg-1 single dose, 18 h) was -60.6 g. For the same compound, the “food intake, difference compared with vehicle treated rats” value ([1]; experiment C, 20 mg kg-1 single dose, […]) was -15.0 g, the “weight gain for several days after the experiment” value ([1]; experiment C, single administration (Compound 1 5 mg kg-1; Compound 3 10, 20 mg kg-1)) was “significantly reduced” and the “daily food intake after treatment relative to vehicle treated rats” value ([1]; experiment C, single administration (Compound 1 5 mg kg-1; Compound 3 10, 20 mg kg-1), days after) was “reduced”. The “weight gain, difference between 10 mg kg-1 and 20 mg kg-1 treatment groups” value ([1]; experiment C, single dose, day 5) was -12.3 g, the “mean number of vomiting episodes±SEM” value (adult male ferrets; 5 mg kg-1 I.P. 15 min before M6G) was 2.0±0.6 and the “mean number of vomiting episodes±SEM” value (adult male ferrets; 10 mg kg-1 I.P. 15 min before M6G) was 2.0±0.4. The “mean number of vomiting episodes±SEM” value (adult male ferrets; 20 mg kg-1 I.P. 15 min before M6G) was 2.7±0.6, the “effect on number of vomiting episodes induced by M6G compared with vehicle” value (adult male ferrets; Compound 3 5, 10, 20 mg kg-1, Compound 1 5 mg kg-1) was “did not significantly increase” and the “suppression of FR5 responding compared to vehicle” value (Rats; IP 1.0, 2.0, 4.0, 8.0 mg/kg) was “significantly suppressed”. For the same compound, the ED50 (Rats; Rattus norvegicus, IP, pretreatment 30 min, read-out: ED50 for the effect on FR5 responding) was 0.78 mg/kg, the “change in lever pressing on FR5 compared to vehicle” value (Rats; oral, 1 hour before testing (Compound 3 8.0-32.0 mg/kg; Compound 2 4.0-16.0 mg/kg)) was “no significant change” and the Ki (CB1 receptor [2]; against [3H]CP55,940, rat brain membranes) was 0.89 ± 0.44 nM. For the same compound, the “selectivity for CB1 versus CB2 receptors” value (CB1 receptor [2]; ratio of Ki values) was ~100 fold, the “hypothermic effect of CP55,940” value (CB1 receptor [3]; 5 mg kg-1 pre-treatment 45 min before CP55,940 0.3 mg kg-1, compared with vehicle) was “completely blocked” and the “blood brain barrier passage” value (CB1 receptor [3]; inferred from block of centrally mediated hypothermia, within a short period after administration) was “crosses the blood brain barrier”.
